# Experimental data taken from patent US10538555B2, “Macrocyclic inhibitors of the PD-1/PD-L1 and CD80(B7-1)/PD-L1 protein/protein interactions” (BRISTOL-MYERS SQUIBB COMPANY, priority 2014, dated 2020).
# *1 amine or outer side, *2 acyl side, *3 side chain or, on linkers, in order; H or OH if unused. Where a SMILES comes first, the peptide text is derived from it. Bridges are numbered along the chain shown (N, C = ends). [ ]: non-standard residue; d: D form. ξ: configuration not given here. Phe(3,4,5-F3) = N[C@@H](Cc1cc(F)c(F)c(F)c1)C(=O)O; Trp(5-OH) = N[C@@H](Cc1c[nH]c2ccc(O)cc12)C(=O)O; NMePhe(4-F) = CN[C@@H](Cc1ccc(F)cc1)C(=O)O; NMe3Pal = CN[C@@H](Cc1cccnc1)C(=O)O; Hyp = O=C(O)[C@@H]1C[C@@H](O)CN1; NMeF = CN[C@@H](Cc1ccccc1)C(=O)O; X1 = O=C([C@H]1COCCN1[*:1])[*:2]; dHyp = O=C(O)[C@H]1C[C@H](O)CN1; NMeNle = CCCC[C@H](NC)C(=O)O; dPip = O=C(O)[C@H]1CCCCN1; hSer = N[C@@H](CCO)C(=O)O; NMeA = CN[C@@H](C)C(=O)O; Orn = NCCC[C@H](N)C(=O)O; Dab = NCC[C@H](N)C(=O)O; dAze = O=C(O)[C@H]1CCN1; Dap = NC[C@H](N)C(=O)O; ξC = NC(CS)C(=O)O; Sar = CNCC(=O)O
# Biological target: T1, Human PD-L1/PD-1 (Homo sapiens, UniProt Q9NZQ7)
# T1 construct: TVMV protease cleavage site (C); made in house; host or cells: HEK293T cells
# T1 sequence (Q9NZQ7 with tags, fused parts or gaps): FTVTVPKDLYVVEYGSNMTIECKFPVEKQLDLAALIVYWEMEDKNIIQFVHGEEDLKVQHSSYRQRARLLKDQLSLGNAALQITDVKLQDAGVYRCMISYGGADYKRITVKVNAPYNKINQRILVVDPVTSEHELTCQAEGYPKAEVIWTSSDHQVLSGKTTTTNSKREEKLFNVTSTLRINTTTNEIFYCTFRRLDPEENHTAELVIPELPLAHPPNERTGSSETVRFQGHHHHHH
# Test: HTRF Human PD-L1/PD-1 binding assay (PD-1-Ig/PD-L1-His)
# Conditions: PD-L1-His 10 nM, PD-1-Ig 20 nM; class symbol; read-out: HTRF Human PD-L1/PD-1 Binding Assay IC50 Range
# Method in brief: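 HTRF competition using HEK293T-expressed human PD-1(25-167)-Ig at 20 nM and PD-L1(18-239)-His at 10 nM, compound incubated first with PD-L1 for 15 min, then with PD-1 for 15 min. Signal read as 665/620 nm ratio 30 min after adding Eu anti-Ig and APC anti-His antibodies.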
row,SMILES,IC50 [nM]
1,CCCC[C@H]1C(=O)N[C@@H](CC(N)=O)C(=O)N2CCC[C@H]2C(=O)N[C@@H](CO)C(=O)N[C@@H](CCO)C(=O)N2C[C@H](O)C[C@H]2C(=O)N[C@@H](Cc2c[nH]c3ccccc23)C(=O)N[C@@H](CO)C(=O)N[C@@H](Cc2c[nH]c3ccccc23)C(=O)N(C)[C@@H](C)C(=O)N(C)[C@@H](C)C(=O)N[C@@H](CCCN)C(=O)NC(C(=O)NCC(N)=O)CSCC(=O)N[C@@H](Cc2ccc(O)cc2)C(=O)N1C (stereo partly drawn) [Example 10213] ({CH2CO}-Y[NMeNle]NPS[hSer][Hyp]WSW[NMeA][NMeA][Orn][ξC]G-NH2; thioether N-14),1000 to 10000
2,"CC(C)C[C@@H]1NC(=O)[C@H](Cc2ccc(O)cc2)NC(=O)[C@H](Cc2c[nH]c3ccccc23)NC(=O)[C@H]2CCCCN2C(=O)[C@H](Cc2ccc(O)cc2)NC(=O)[C@H](Cc2ccccc2)N(C)C(=O)[C@H](C(C)C)NC(=O)[C@H](CC(=O)O)NC(=O)[C@H]2CCCN2C(=O)[C@H](C)N(C)C(=O)[C@H](Cc2ccc(F)cc2)N(C)C(=O)[C@H](Cc2cc(F)c(F)c(F)c2)NC(=O)CSC[C@@H](C(=O)NCC(N)=O)NC1=O [Example 10542] ({CH2CO}-[Phe(3,4,5-F3)][NMePhe(4-F)][NMeA][dP]DV[NMeF]Y[dPip]WYLCG-NH2; thioether N-13)",1 to 9.9
3,CCCC[C@H]1C(=O)N(C)[C@@H](CCCC)C(=O)N[C@@H](CCC(=O)O)C(=O)N[C@H](C(=O)NCC(N)=O)CSCC(=O)N[C@@H](Cc2ccc(OC)cc2)C(=O)N(C)[C@@H](C)C(=O)N[C@@H](CC(=O)O)C(=O)N2CCC[C@H]2C(=O)N[C@@H](CN)C(=O)N[C@@H](CCC(=O)O)C(=O)N2C[C@H](O)C[C@H]2C(=O)N[C@@H](Cc2c[nH]c3ccccc23)C(=O)N[C@@H](CCN)C(=O)N[C@@H](Cc2c[nH]c3ccc(O)cc23)C(=O)N1C [Example 7152] ({CH2CO}-Y(Me)[NMeA]DP[Dap]E[Hyp]W[Dab][Trp(5-OH)][NMeNle][NMeNle]ECG-NH2; thioether N-14),10 to 99.9
4,CCCC[C@H]1C(=O)N(C)CC(=O)N[C@@H](CC(N)=O)C(=O)N[C@@H](C(C)C)C(=O)N(C)[C@@H](Cc2ccccc2)C(=O)N[C@@H](Cc2ccc(O)cc2)C(=O)N(C)CC(=O)N[C@@H](Cc2c[nH]c3ccccc23)C(=O)N[C@@H](Cc2ccc(O)cc2)C(=O)N[C@@H](CCCN)C(=O)N[C@H](C(=O)NCC(N)=O)CSCC(=O)N[C@@H](Cc2ccccc2)C(=O)N(C)[C@@H](Cc2cccnc2)C(=O)N1C [Example 3614] ({CH2CO}-F[NMe3Pal][NMeNle][Sar]NV[NMeF]Y[Sar]WY[Orn]CG-NH2; thioether N-13),10 to 99.9

# Other lines, results leading:
row,IC50 [nM],SMILES
1,10 to 99.9,"CCCC[C@H]1C(=O)N2CC[C@@H]2C(=O)N[C@@H](CC(=O)O)C(=O)N[C@@H](C(C)C)C(=O)N(C)[C@@H](Cc2ccccc2)C(=O)N[C@@H](CCC(=O)O)C(=O)N2CCOC[C@@H]2C(=O)N[C@@H](Cc2c[nH]c3ccccc23)C(=O)N[C@@H](Cc2ccc(O)cc2)C(=O)N[C@@H](CCCN)C(=O)N[C@H](C(=O)NCC(N)=O)CSCC(=O)N[C@@H](Cc2cc(F)c(F)c(F)c2)C(=O)N(C)[C@@H](Cc2ccccc2)C(=O)N1C [Example 3643] ({CH2CO}-[Phe(3,4,5-F3)][NMeF][NMeNle][dAze]DV[NMeF]E[X1]WY[Orn]CG-NH2; thioether N-13)"
2,1 to 9.9,"CCCC[C@H]1C(=O)N2C[C@@H](O)C[C@@H]2C(=O)N[C@@H](CC(=O)O)C(=O)N[C@@H](C(C)C)C(=O)N(C)[C@@H](Cc2ccccc2)C(=O)N[C@@H](CCC(=O)O)C(=O)N2CCCC[C@@H]2C(=O)N[C@@H](Cc2c[nH]c3ccccc23)C(=O)N[C@@H](Cc2ccc(O)cc2)C(=O)N[C@@H](CO)C(=O)N[C@H](C(=O)NCC(N)=O)CSCC(=O)N[C@@H](Cc2cc(F)c(F)c(F)c2)C(=O)N(C)[C@@H](Cc2ccc(F)cc2)C(=O)N1C [Example 10557] ({CH2CO}-[Phe(3,4,5-F3)][NMePhe(4-F)][NMeNle][dHyp]DV[NMeF]E[dPip]WYSCG-NH2; thioether N-13)"
